The values that follow come from paper PMC4338433 (Scientific Reports, 2015).

One experiment deals with AVR-14B GluCl R76N. In words: Two electrode voltage-clamp of Xenopus laevis oocytes expressing R76N mutant AVR-14B GluCl. The format is cell-based, Haemonchus contortus. The source says: (§1) All mutant cDNAs were generated from AVR-14B cDNA in the T7 plasmid vector[45] by conventional PCR with Pfu DNA polymerase (Thermo Scientific, Germany) and commercially generated mutagenesis primers (Eurofins MWG Operon, Ebersberg, Germany). All cDNAs were sequenced to confirm the presence of appropriate mutations (Eurofins MWG Operon) and linearized with XbaI (Thermo Scientific). cRNAs were synthesized with the mMESSAGE mMACHINE T7 Kit (Life Technologies GmbH, Darmstadt, Germany). X. laevis oocytes were used for two electrode voltage-clamp electrophysiology as previously described[48] and under approval of the Technical University of Darmstadt (Agreement V54-19c20/15 DA8/Anz. 20). After 2–5 days, oocytes were perfused with extracellular solution (115 mM NaCl, 1 mM KCl, 1.8 mM CaCl2, 10 mM HEPES, pH 7.4 with NaOH) alone or containing agonist, and currents were sampled at 1 kHz and filtered at 500 Hz with a Digidata 1322A digitizer, Geneclamp 500B amplifier and Clampex software (Molecular Devices, Sunnyvale, CA, USA). […] Non-linear regression parameters were compared to the respective WT value with Student's unpaired t tests (Prism4).

The next experiment concerns the target T1, AVR-14B GluCl Y248F (Haemonchus contortus, UniProt O46124, Y248F).
T1 sequence (O46124 31-438 Y248F): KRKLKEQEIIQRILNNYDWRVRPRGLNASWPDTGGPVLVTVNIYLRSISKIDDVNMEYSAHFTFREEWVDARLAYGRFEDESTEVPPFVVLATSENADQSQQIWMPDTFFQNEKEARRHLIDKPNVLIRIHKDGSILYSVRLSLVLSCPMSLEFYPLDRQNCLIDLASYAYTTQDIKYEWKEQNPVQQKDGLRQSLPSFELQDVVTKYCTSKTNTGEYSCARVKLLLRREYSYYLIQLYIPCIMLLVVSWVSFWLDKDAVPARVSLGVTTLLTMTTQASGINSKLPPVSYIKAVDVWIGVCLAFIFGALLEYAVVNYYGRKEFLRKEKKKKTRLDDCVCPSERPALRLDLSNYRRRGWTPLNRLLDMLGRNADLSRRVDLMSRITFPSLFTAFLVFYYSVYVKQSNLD
Conditions: Y248F mutant, mean ± s.e.m.
Excerpt: as §1, with “20).” for “20). After 2–5 days, oocytes were perfused with extracellular solution (115 mM NaCl, 1 mM KCl, 1.8 mM CaCl2, 10 mM HEPES, pH 7.4 with NaOH) alone or containing agonist, and currents were sampled at 1 kHz and filtered at 500 Hz with a Digidata 1322A digitizer, Geneclamp 500B amplifier and Clampex software (Molecular Devices, Sunnyvale, CA, USA).”

A further experiment deals with T2, AVR-14B GluCl Q141R (Haemonchus contortus, UniProt O46124, Q141R).
T2 sequence (O46124 31-438 Q141R): T1 sequence (O46124 31-438 Y248F)
Conditions: Q141R mutant; mean ± s.e.m.
Excerpt: as §1, with “20).” for “20). After 2–5 days, oocytes were perfused with extracellular solution (115 mM NaCl, 1 mM KCl, 1.8 mM CaCl2, 10 mM HEPES, pH 7.4 with NaOH) alone or containing agonist, and currents were sampled at 1 kHz and filtered at 500 Hz with a Digidata 1322A digitizer, Geneclamp 500B amplifier and Clampex software (Molecular Devices, Sunnyvale, CA, USA).”

The target of a further experiment is T3, AVR-14B GluCl S169A (Haemonchus contortus, UniProt O46124, S169A).
T3 sequence (O46124 31-438 S169A): T1 sequence (O46124 31-438 Y248F)
Conditions: S169A mutant, mean ± s.e.m.
Excerpt: as §1, with “20).” for “20). After 2–5 days, oocytes were perfused with extracellular solution (115 mM NaCl, 1 mM KCl, 1.8 mM CaCl2, 10 mM HEPES, pH 7.4 with NaOH) alone or containing agonist, and currents were sampled at 1 kHz and filtered at 500 Hz with a Digidata 1322A digitizer, Geneclamp 500B amplifier and Clampex software (Molecular Devices, Sunnyvale, CA, USA).”

The target of the next experiment is T4, AVR-14B GluCl K219A (Haemonchus contortus, UniProt O46124, K219A).
T4 sequence (O46124 31-438 K219A): T1 sequence (O46124 31-438 Y248F)
Conditions: K219A mutant, mean ± s.e.m.
Excerpt: as §1, with “20).” for “20). After 2–5 days, oocytes were perfused with extracellular solution (115 mM NaCl, 1 mM KCl, 1.8 mM CaCl2, 10 mM HEPES, pH 7.4 with NaOH) alone or containing agonist, and currents were sampled at 1 kHz and filtered at 500 Hz with a Digidata 1322A digitizer, Geneclamp 500B amplifier and Clampex software (Molecular Devices, Sunnyvale, CA, USA).”

For the next experiment, the target named is T5, AVR-14B GluCl T245A (Haemonchus contortus, UniProt O46124, T245A).
T5 sequence (O46124 31-438 T245A): T1 sequence (O46124 31-438 Y248F)
Conditions: T245A mutant, mean ± s.e.m.
Excerpt: as §1, with “20).” for “20). After 2–5 days, oocytes were perfused with extracellular solution (115 mM NaCl, 1 mM KCl, 1.8 mM CaCl2, 10 mM HEPES, pH 7.4 with NaOH) alone or containing agonist, and currents were sampled at 1 kHz and filtered at 500 Hz with a Digidata 1322A digitizer, Geneclamp 500B amplifier and Clampex software (Molecular Devices, Sunnyvale, CA, USA).”

Experiment [1] has as its target T6, AVR-14B GluCl R76N/Q141R/K219A (RN/QR/KA) (Haemonchus contortus, UniProt O46124, K219A/Q141R/R76N).
T6 sequence (O46124 31-438 R76N/Q141R/K219A): T1 sequence (O46124 31-438 Y248F)
Conditions: R76N/Q141R/K219A triple-mutant; mean ± s.e.m.
Excerpt: as §1, with “20).” for “20). After 2–5 days, oocytes were perfused with extracellular solution (115 mM NaCl, 1 mM KCl, 1.8 mM CaCl2, 10 mM HEPES, pH 7.4 with NaOH) alone or containing agonist, and currents were sampled at 1 kHz and filtered at 500 Hz with a Digidata 1322A digitizer, Geneclamp 500B amplifier and Clampex software (Molecular Devices, Sunnyvale, CA, USA).”

The target of experiment [2] is H. contortus AVR-14B GluCl (wild-type) (Haemonchus contortus, UniProt O46124). The format is cell-based. Conditions: Wild-type AVR-14B GluCl, mean ± s.e.m.
Excerpt: as §1, with “20).” for “20). After 2–5 days, oocytes were perfused with extracellular solution (115 mM NaCl, 1 mM KCl, 1.8 mM CaCl2, 10 mM HEPES, pH 7.4 with NaOH) alone or containing agonist, and currents were sampled at 1 kHz and filtered at 500 Hz with a Digidata 1322A digitizer, Geneclamp 500B amplifier and Clampex software (Molecular Devices, Sunnyvale, CA, USA).”

The subject of the next experiment is AVR-14B GluCl A197E. In words: Two electrode voltage-clamp of Xenopus laevis oocytes expressing A197E mutant AVR-14B GluCl. The format is cell-based, Haemonchus contortus.
Excerpt: as §1

The test system of a further experiment is AVR-14B GluCl R95A. In words: Two electrode voltage-clamp of Xenopus laevis oocytes expressing R95A mutant AVR-14B GluCl. The class given is cell-based, Haemonchus contortus. Conditions: 1 μM ivermectin, mean ± s.e.m.
Excerpt: as §1

Another experiment deals with AVR-14B GluCl Y199F. The experiment is described as follows: Two electrode voltage-clamp of Xenopus laevis oocytes expressing Y199F mutant AVR-14B GluCl. The class given is cell-based, Haemonchus contortus. Conditions: 1 μM ivermectin, mean ± s.e.m.
Excerpt: as §1

As for `N[C@@H](CCC(=O)O)C(=O)O` [Glutamate], the Gating by glutamate entry with AVR-14B GluCl R76N (glutamate up to 100 mM) is “not substantially gated”. The “Glutamate nH” value amounted to 1.9 ± 0.2 on AVR-14B GluCl Y248F (Hill coefficient); 1.8 ± 0.2 at AVR-14B GluCl S169A (Hill coefficient); 2.1 ± 0.4 at AVR-14B GluCl K219A (Hill coefficient); 2.0 ± 0.1 on AVR-14B GluCl T245A (Hill coefficient); 1.7 ± 0.2 in experiment [2] (Hill coefficient). Also, the “Glutamate Imax” value on AVR-14B GluCl Y248F was 4.3 ± 0.8 μA; on AVR-14B GluCl Q141R it was 1.1 ± 0.4 μA; at AVR-14B GluCl S169A it was 4.3 ± 1.1 μA; on AVR-14B GluCl K219A, 3.3 ± 0.5 μA; at AVR-14B GluCl T245A, 5.5 ± 0.8 μA; in experiment [1], 2.3 ± 0.3 μA. Further, the “Glutamate Imax” value in [2] (maximum glutamate-gated current) is recorded as 3.1 ± 0.3 μA. In the experiment with AVR-14B GluCl A197E (effect of the A197E substitution), the Glutamate-gated currents entry is “abolished”.

For the compound Ivermectin, the “Ivermectin Imax” value with AVR-14B GluCl R76N (1 μM ivermectin, mean ± s.e.m.) worked out at 3.6 ± 1.0 μA; in the experiment on AVR-14B GluCl R95A, 4.8 ± 1.9 μA; in [2] (1 μM ivermectin), 2.4 ± 0.4 μA; in the experiment with AVR-14B GluCl A197E (1 μM ivermectin, A197E mutant, mean ± s.e.m.), 2.4 ± 0.7 μA; in the experiment with AVR-14B GluCl Y199F, 0.7 ± 0.2 μA.
